# Reference: patent EP0563062B1, “HEXAPEPTIDES DERIVING FROM AGLUCOTEICOPLANIN AND A PROCESS FOR PREPARING THEM” (GRUPPO LEPETIT S.p.A., priority 1990, dated 1992)
# What was measured:
# Assay in all cases: MIC, microdilution method in broth, in comparison with teicoplanin
# Type in all cases: cell-based
# [1] = test system: S. epidermidis and S. haemolyticus, two species of Coagulase-Negative Staphylococci (CNS); conditions: relative to teicoplanin; Iso-Sensitest broth, inoculum about 10^5 cfu/ml, 18-24 hours at 37°C
# Protocol: (§1) The antimicrobial activity, expressed as minimal inhibitory concentration (MIC), of the hexapeptide of formula (I), R = hydrogen, against selected strains of Gram-positive bacteria was determined in comparison with teicoplanin. The microdilution method in Difco Todd-Hewitt broth (Streptococci) or Oxoid Iso-Sensitest broth (Staphylococci) was used.
# [2] = test system: Staphylococci and Streptococci; conditions: relative to teicoplanin; inoculum about 10^5 cfu/ml, 18-24 hours at 37°C
# Protocol: as §1
# [3] = test system: two strains of S. aureus and S. epidermidis showing low sensitivity to teicoplanin; conditions: Iso-Sensitest broth, 18-24 hours at 37°C
# Protocol: as §1
substance,measurement,setting,value
aglucoteicoplanin hexapeptide,"antimicrobial activity, expressed as minimal inhibitory concentration (MIC)",[1],same degree of activity
same,"antimicrobial activity, expressed as minimal inhibitory concentration (MIC)",[2],generally less active than teicoplanin
same,"antimicrobial activity (MIC), fold relative to teicoplanin",[3],four to sixteen times more active
